In patent publication US20180369203A1, “METHODS OF TREATING CANCER BY ADMINISTERING A MEK INHIBITOR IN COMBINATION WITH A PROTEASOME INHIBITOR” (The Jackson Laboratory, priority 2015, published 2018):

System: A2058 cells
Assay: A2058 s.c. melanoma xenograft in NOD/SCID mice
Assay type: in vivo
Protocol: FIGS. 6A-N show combined MEK and proteasome inhibition exerts potent tumor-suppressive effects. (A) After treatments with 20 nM AZD6244, 100 nM Bortezomib, or both for 24 hr, viable cells were quantitated by CellTiter® Blue (mean±SD, n=6, ANOVA). (B and C) 1×10^6 A2058 cells were s.c. injected into NOD/SCID mice. After 7 days, mice were treated with DMSO, 5 mg/Kg AZD6244, 0.5 mg/Kg Bortezomib, or the combination via i.p. injection three times a week. Tumor volumes were measured using a caliper weekly (mean±SEM, ANOVA). Tumor growth curves were fitted to exponential growth models to derive tumor-doubling time (DT). Kaplan-Meier survival curve was plotted for each group (Log-rank test). (D) Proteins were detected by immunoblotting, 3 tumors per group. (E) Tumor lysates were used to quantitate AOs, 5 tumors per group (mean±SD, n=3, ANOVA). (F) Tumor lysates were used to seed Aβ1-42 peptides, 5 tumors per group (mean±SD, n=3, ANOVA). (G-H) Tumor sections were stained with CR, 5 tumors per group. Ten random fields were taken for each section. Scale bar: 50 μm. Total CR fluorescence in each field was quantitated using ImageJ and normalized against total nuclei (median, n=50, ANOVA). (I) Following CR staining, tumor sections were visualized under polarized light microscopy. Scale bar: 50 μm. (J) Following staining with AF-specific antibodies (OC), sections of tumors receiving combined treatment were further stained with CR. Scale bar: 50 μm. […] Body weights were monitored weekly (mean±SD, n=10, ANOVA). […]
FIG. 13A-J illustrates combined MEK and proteasome inhibition disrupts proteostasis and impedes in vivo tumor growth. […] Body weights were recorded before xenografting and at sacrifice. […] Quantitation of immunoblotting results in FIG. 6D (mean±SD, n=3, ANOVA). […] Lys48-specific protein ubiquitination and caspase 3 cleavage were measured by immunoblotting in 3 spleens per group.
A2058 cells were s.c. injected into the left flanks of 9-week-old female NOD.CB17-Prkdc/J (NOD/SCID) mice (The Jackson Laboratory). […] Tumor volumes were calculated following the formula 4/3πR^3. […]

CC(C)C[C@H](NC(=O)[C@H](Cc1ccccc1)NC(=O)c1cnccn1)B(O)O [Bortezomib, bortezomib]
growth of xenografted melanomas (5 mg/Kg AZD6244, 0.5 mg/Kg Bortezomib or combination, i.p. three times a week): no significant impacts | HSF1 Ser326 phosphorylation and HSP expression in tumors (stress response) (tumor immunoblotting): induced | ubiquitination in tumors (tumor immunoblotting, 3 tumors per group): slightly elevated
